Data as given in patent US12473295B2, “Substituted straight chain spiro derivatives” (Janssen Pharmaceutica NV, priority 2019, dated 2025).
Counter-ions that a name gives are not always drawn.

Assays:
MEIS1 mRNA = MEIS1 mRNA expression assay (Quantigene Singleplex) in MOLM14 cells; format: cell-based, human; details: Homo sapiens, MOLM-14, 48 h, 48 hours incubation;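 further: MEIS1 transcript levels read by probe hybridization and normalized to RPL28 mRNA, with IC50 fitted to fold changes across a rising compound concentration series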
[1] = biological target: menin/MLL (terbium chelate-labeled menin, FITC-MBM1 peptide) (Homo sapiens (Human), UniProt O00255); experiment: Menin/MLL homogenous time-resolved fluorescence (HTRF) assay; format: binding; details: HTRF-30 min incubation IC50, 30 min incubation;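 further: IC50 from percent inhibition of HTRF signal, normalized between wells without competitor and wells with a saturating competitor that displaces FITC-MBM1 from His-tagged menin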
Sequence of menin/MLL (terbium chelate-labeled menin, FITC-MBM1 peptide) (O00255 other isoform, or with tags, fused parts or gaps): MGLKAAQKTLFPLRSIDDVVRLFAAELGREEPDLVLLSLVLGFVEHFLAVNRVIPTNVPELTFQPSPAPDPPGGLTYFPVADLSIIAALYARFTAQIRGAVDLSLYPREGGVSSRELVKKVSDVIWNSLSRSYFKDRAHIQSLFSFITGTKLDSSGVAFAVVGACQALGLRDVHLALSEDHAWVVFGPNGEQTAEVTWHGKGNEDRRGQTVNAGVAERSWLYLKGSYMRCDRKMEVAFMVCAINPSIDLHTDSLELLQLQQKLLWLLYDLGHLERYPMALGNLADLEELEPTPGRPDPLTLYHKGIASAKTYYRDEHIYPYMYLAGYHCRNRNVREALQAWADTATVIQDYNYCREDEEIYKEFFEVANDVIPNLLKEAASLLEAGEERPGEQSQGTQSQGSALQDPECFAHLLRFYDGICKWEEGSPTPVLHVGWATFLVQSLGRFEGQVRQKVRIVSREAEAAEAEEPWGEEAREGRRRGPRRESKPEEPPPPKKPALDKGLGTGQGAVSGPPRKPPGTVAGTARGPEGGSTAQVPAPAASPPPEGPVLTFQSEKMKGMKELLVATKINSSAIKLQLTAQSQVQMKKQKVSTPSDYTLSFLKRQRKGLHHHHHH

KO-52 cells = experiment: Proliferation assay (spheroid growth, 8 days), KO-52 control cell line; format: cell-based, human; details: Homo sapiens, […], read-out: spheroid assay_OneTime KO-52 IC50
In short: (§1)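 200 MOLM14 (MLL-AF9), 200 OCI-AML3 (NPM1c) or 300 KO-52 (MLL wildtype) cells were grown as spheroids in ultra-low attachment wells with compound, 0.3% DMSO, for 8 days at 37 °C. Confluence was imaged on day 8, normalized to DMSO and top-dose reference compound. IC50 came from a variable-slope fit constrained 0–100%.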

OCI-AML3 cells = experiment: Proliferation assay (spheroid growth, 8 days), OCI-AML3; format: cell-based, human; details: Homo sapiens, OCI-AML-3, […], OCI-AML3, 8 days
In short: as §1

MOLM14 cells = experiment: Proliferation assay (spheroid growth, 8 days), MOLM14; format: cell-based, human; details: Homo sapiens, MOLM-14, […], MOLM14, 8 days; read-out: spheroid assay_OneTime MOLM14 IC50;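 further: spheroid size read as confluence by live-cell imaging, compounds added at a range of concentrations with 0.3% DMSO, DMSO-treated wells = 0%, highest reference dose = low control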

With `CCN(C(=O)c1cc(F)ccc1Oc1nncnc1N1CCC2(C1)CN([C@H](CCN(C)CCC(N)=O)C(C)C)C2)C(C)C` (single isomer, unassigned) [Compound 280, (*R)-2-((5-(2-(1-((3-amino-3-oxopropyl)(methyl)amino)-4-methylpentan-3-yl)-2,6-diazaspiro[3.4]octan-6-yl)-1,2,4-triazin-6-yl)oxy)-N-ethyl-5-fluoro-N-isopropylbenzamide fumarate] the IC50 (MEIS1 mRNA) was 1070 nM, the IC50 [1] was 0.2 nM and the IC50 (KO-52 cells) was over 15000 nM. The IC50 (OCI-AML3 cells) was 920 nM and the IC50 (MOLM14 cells) was 690 nM.
`CCN(C(=O)c1cc(F)ccc1Oc1nncnc1N1CCC2(C1)CN([C@H](C[C@@H](CN(C)C)OC)C(C)C)C2)C(C)C` (single isomer, unassigned) [Compound 315, 2-((5-(2-((3*R,5*S)-6-(dimethylamino)-5-methoxy-2-methylhexan-3-yl)-2,6-diazaspiro[3.4]octan-6-yl)-1,2,4-triazin-6-yl)oxy)-N-ethyl-5-fluoro-N-isopropylbenzamide fumarate] showed an IC50 (MEIS1 mRNA) of about 330 nM, an IC50 [1] of 0.51 nM and an IC50 (KO-52 cells) of over 15000 nM. For the same compound, the IC50 (OCI-AML3 cells) was 1090 nM and the IC50 (MOLM14 cells) was 290 nM.
`CCN(C(=O)c1cc(F)ccc1Oc1nncnc1N1CCC2(C1)CN([C@H](C[C@@H](O)CN(C)C(C)C)C(C)C)C2)C(C)C` (single isomer, unassigned) [Compound 323, N-ethyl-5-fluoro-2-((5-(2-((3*R,5*R)-5-hydroxy-6-(isopropyl(methyl)amino)-2-methylhexan-3-yl)-2,6-diazaspiro[3.4]octan-6-yl)-1,2,4-triazin-6-yl)oxy)-N-isopropylbenzamide fumarate] showed an IC50 (MEIS1 mRNA) of 62 nM, an IC50 [1] of 0.49 nM and an IC50 (KO-52 cells) of 13400 nM. For the same compound, the IC50 (OCI-AML3 cells) was 170 nM and the IC50 (MOLM14 cells) was 110 nM.
`CCN(C(=O)c1cc(F)ccc1Oc1nncnc1N1CCC2(C1)CN([C@H](C[C@H](O)CN(C)C(C)C)C(C)C)C2)C(C)C` (single isomer, unassigned) [Compound 325, N-ethyl-5-fluoro-2-((5-(2-((3*R,5*S)-5-hydroxy-6-(isopropyl(methyl)amino)-2-methylhexan-3-yl)-2,6-diazaspiro[3.4]octan-6-yl)-1,2,4-triazin-6-yl)oxy)-N-isopropylbenzamide fumarate] showed an IC50 (MEIS1 mRNA) of 15 nM, an IC50 [1] of about 0.16 nM and an IC50 (KO-52 cells) of over 15000 nM. For the same compound, the IC50 (OCI-AML3 cells) was 190 nM and the IC50 (MOLM14 cells) was 16 nM.
With `CCN(CC)C[C@H](O)C[C@H](C(C)C)N1CC2(CCN(c3ncnnc3Oc3ccc(F)cc3C(=O)N(CC)C(C)C)C2)C1` (single isomer, unassigned) [Compound 334, 2-((5-(2-((3*R,5*R)-6-(diethylamino)-5-hydroxy-2-methylhexan-3-yl)-2,6-diazaspiro[3.4]octan-6-yl)-1,2,4-triazin-6-yl)oxy)-N-ethyl-5-fluoro-N-isopropylbenzamide fumarate] the IC50 (MEIS1 mRNA) was 11 nM, the IC50 [1] was 0.079 nM and the IC50 (KO-52 cells) was over 15000 nM. For the same compound, the IC50 (OCI-AML3 cells) was 130 nM and the IC50 (MOLM14 cells) was 12 nM.
`CCN(CC)C[C@H](O)C[C@@H](C(C)C)N1CC2(CCN(c3ncnnc3Oc3ccc(F)cc3C(=O)N(CC)C(C)C)C2)C1` (single isomer, unassigned) [Compound 336, 2-((5-(2-((3*S,5*R)-6-(diethylamino)-5-hydroxy-2-methylhexan-3-yl)-2,6-diazaspiro[3.4]octan-6-yl)-1,2,4-triazin-6-yl)oxy)-N-ethyl-5-fluoro-N-isopropylbenzamide fumarate] was tested, and the IC50 (MEIS1 mRNA) was 61 nM, the IC50 [1] was 0.21 nM and the IC50 (KO-52 cells) was over 15000 nM. The IC50 (OCI-AML3 cells) was 870 nM and the IC50 (MOLM14 cells) was 70 nM.
Work on `CCN(C)C[C@@H](O)C[C@H](C(C)C)N1CC2(CCN(c3ncnnc3Oc3ccc(F)cc3C(=O)N(CC)C(C)C)C2)C1` (single isomer, unassigned) [Compound 342, N-ethyl-2-((5-(2-((3*S,5S)-6-(ethyl(methyl)amino)-5-hydroxy-2-methylhexan-3-yl)-2,6-diazaspiro[3.4]octan-6-yl)-1,2,4-triazin-6-yl)oxy)-5-fluoro-N-isopropylbenzamide fumarate] yielded an IC50 (MEIS1 mRNA) of 78 nM, an IC50 [1] of 0.17 nM and an IC50 (KO-52 cells) of 23 nM. For the same compound, the IC50 (OCI-AML3 cells) was 25 nM and the IC50 (MOLM14 cells) was 10 nM.
`CCN(C(=O)c1cc(F)ccc1Oc1nncnc1N1CCC2(C1)CN([C@H](C[C@H](O)CN(C)CCOC)C(C)C)C2)C(C)C` (single isomer, unassigned) [Compound 352, N-ethyl-5-fluoro-2-((5-(2-((3*R,5S)-5-hydroxy-6-((2-methoxyethyl)(methyl)amino)-2-methylhexan-3-yl)-2,6-diazaspiro[3.4]octan-6-yl)-1,2,4-triazin-6-yl)oxy)-N-isopropylbenzamide fumarate] gave an IC50 (MEIS1 mRNA) of 130 nM, an IC50 [1] of 0.077 nM and an IC50 (KO-52 cells) of over 15000 nM. For the same compound, the IC50 (OCI-AML3 cells) was 150 nM and the IC50 (MOLM14 cells) was 18 nM.
Compound `CCN(C(=O)c1cc(F)ccc1Oc1nncnc1N1CCC2(C1)CN([C@H](C[C@@H](O)CN(C)CCOC)C(C)C)C2)C(C)C` (single isomer, unassigned) [Compound 356, N-ethyl-5-fluoro-2-((5-(2-((3*R,5R)-5-hydroxy-6-((2-methoxyethyl)(methyl)amino)-2-methylhexan-3-yl)-2,6-diazaspiro[3.4]octan-6-yl)-1,2,4-triazin-6-yl)oxy)-N-isopropylbenzamide fumarate] has an IC50 (MEIS1 mRNA) of about 8.2 nM, an IC50 [1] of 0.053 nM and an IC50 (KO-52 cells) of over 15000 nM. It also gave an IC50 (OCI-AML3 cells) of 46 nM and an IC50 (MOLM14 cells) of 7 nM.
`CC(C)[C@@H](C[C@@H](O)CN(C)C)N1CC2(CCN(c3ncnnc3Oc3ccc(F)cc3C(=O)N(C(C)C)C(C)C)C2)C1` (single isomer, unassigned) [Compound 365, 2-((5-(2-((3*R,5*R)-6-(dimethylamino)-5-hydroxy-2-methylhexan-3-yl)-2,6-diazaspiro[3.4]octan-6-yl)-1,2,4-triazin-6-yl)oxy)-5-fluoro-N,N-diisopropylbenzamide fumarate] was tested, and the IC50 (MEIS1 mRNA) was 10 nM, the IC50 [1] was 0.097 nM and the IC50 (KO-52 cells) was over 15000 nM. For the same compound, the IC50 (OCI-AML3 cells) was 37 nM and the IC50 (MOLM14 cells) was 11 nM.
In the case of `CC(C)[C@@H](C[C@H](O)CN(C)C)N1CC2(CCN(c3ncnnc3Oc3ccc(F)cc3C(=O)N(C(C)C)C(C)C)C2)C1` (single isomer, unassigned) [Compound 366], the IC50 (MEIS1 mRNA) is reported as 20 nM, the IC50 [1] is reported as 0.088 nM and the IC50 (KO-52 cells) is reported as over 15000 nM. It also gave an IC50 (OCI-AML3 cells) of 76 nM and an IC50 (MOLM14 cells) of 17 nM.
`CCCN(C)C[C@H](O)C[C@H](C(C)C)N1CC2(CCN(c3ncnnc3Oc3ccc(F)cc3C(=O)N(CC)C(C)C)C2)C1` (single isomer, unassigned) [Compound 386, N-ethyl-5-fluoro-2-((5-(2-((3*R,5*R)-5-hydroxy-2-methyl-6-(methyl(propyl)amino)hexan-3-yl)-2,6-diazaspiro[3.4]octan-6-yl)-1,2,4-triazin-6-yl)oxy)-N-isopropylbenzamide fumarate] was tested, and the IC50 (MEIS1 mRNA) was 61 nM, the IC50 [1] was about 0.59 nM and the IC50 (KO-52 cells) was 9600 nM. It also gave an IC50 (OCI-AML3 cells) of 810 nM and an IC50 (MOLM14 cells) of 160 nM.
Compound `CCN(C)C[C@@H](O)C[C@H](C(C)C)N1CC2(CCN(c3ncnnc3Oc3ccc(F)cc3C(=O)N(C(C)C)C(C)C)C2)C1` (single isomer, unassigned) [Compound 391, 2-((5-(2-((3*R,5*S)-6-(ethyl(methyl)amino)-5-hydroxy-2-methylhexan-3-yl)-2,6-diazaspiro[3.4]octan-6-yl)-1,2,4-triazin-6-yl)oxy)-5-fluoro-N,N-diisopropylbenzamide fumarate] has an IC50 (MEIS1 mRNA) of 160 nM, an IC50 [1] of 0.9 nM and an IC50 (KO-52 cells) of over 15000 nM. For the same compound, the IC50 (OCI-AML3 cells) was 2100 nM and the IC50 (MOLM14 cells) was 490 nM.
`CCN(C(=O)c1cc(F)ccc1Oc1nncnc1N1CCC2(C1)CN(C(CCCN)C(C)C)C2)C(C)C` (stereo not shown) [Compound 3, 2-((5-(2-(6-amino-2-methylhexan-3-yl)-2,6-diazaspiro[3.4]octan-6-yl)-1,2,4-triazin-6-yl)oxy)-N-ethyl-5-fluoro-N-isopropylbenzamide formate] gave an IC50 (MEIS1 mRNA) of 95 nM, an IC50 [1] of 0.1 nM and an IC50 (KO-52 cells) of over 15000 nM. The IC50 (OCI-AML3 cells) was 310 nM and the IC50 (MOLM14 cells) was 42 nM.
In the case of `CCN(C(=O)c1cc(F)ccc1Oc1nncnc1N1CCC2(C1)CN([C@H](CCCNC(=O)NC)C(C)C)C2)C(C)C` [Compound 8, (R)-N-ethyl-5-fluoro-N-isopropyl-2-((5-(2-(2-methyl-6-(3-methylureido)hexan-3-yl)-2,6-diazaspiro[3.4]octan-6-yl)-1,2,4-triazin-6-yl)oxy)benzamide], the IC50 (MEIS1 mRNA) is reported as about 650 nM, the IC50 [1] is reported as 0.43 nM and the IC50 (KO-52 cells) is reported as over 15000 nM. The IC50 (OCI-AML3 cells) was 2150 nM and the IC50 (MOLM14 cells) was 1020 nM.
With `CCN(C(=O)c1cc(F)ccc1Oc1nncnc1N1CCC2(C1)CN([C@H](CCCNCC(F)F)C(C)C)C2)C(C)C` [Compound 15, (R)-2-((5-(2-(6-((2,2-difluoroethyl)amino)-2-methylhexan-3-yl)-2,6-diazaspiro[3.4]octan-6-yl)-1,2,4-triazin-6-yl)oxy)-N-ethyl-5-fluoro-N-isopropylbenzamide] the IC50 (MEIS1 mRNA) was 71 nM, the IC50 [1] was 0.25 nM and the IC50 (KO-52 cells) was 3700 nM. For the same compound, the IC50 (OCI-AML3 cells) was 460 nM and the IC50 (MOLM14 cells) was 100 nM.
`CCN(C(=O)c1cc(F)ccc1Oc1nncnc1N1CCC2(C1)CN(C(CCN)C(C)C)C2)C(C)C` (stereo not shown) [Compound 26, 2-((5-(2-(1-amino-4-methylpentan-3-yl)-2,6-diazaspiro[3.4]octan-6-yl)-1,2,4-triazin-6-yl)oxy)-N-ethyl-5-fluoro-N-isopropylbenzamide] showed an IC50 (MEIS1 mRNA) of 490 nM, an IC50 [1] of 0.28 nM and an IC50 (KO-52 cells) of over 15000 nM. It also gave an IC50 (OCI-AML3 cells) of 1340 nM and an IC50 (MOLM14 cells) of 270 nM.
